In patent US20230000842A1, “METHODS OF TREATING CARTILAGE DISORDERS THROUGH INHIBITION OF CLK AND DYRK” (SAMUMED, LLC, priority 2019, published 2023):
pEC50: −log10 of the molar value.

Experiments:
[1] = system: Wnt pathway activity (SW480 colon carcinoma cells stably expressing the Sp5-Luc reporter); assay: Wnt pathway activity screening assay (Sp5-Luc reporter gene assay); conditions: Homo sapiens, SW480, Table 4; SW480 cells stably expressing Sp5-Luc reporter, 10-point dose-response from 10 μM, 36 to 48 hours
CLK3 kinase = CLK3 kinase (Homo sapiens, UniProt P49761); assay: CLK3 kinase activity assay (Z-lyte FRET); format: biochemical; conditions: Z-lyte Ser/Thr 18 peptide, 156 μM ATP, 1 h at room temperature;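 further: kinase activity read as coumarin/fluorescein emission ratio by FRET, unphosphorylated peptide as 0% and phosphorylated peptide as 100% control, values from non-linear regression of dose-response curves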
Sequence of CLK3 kinase (P49761 whole entry): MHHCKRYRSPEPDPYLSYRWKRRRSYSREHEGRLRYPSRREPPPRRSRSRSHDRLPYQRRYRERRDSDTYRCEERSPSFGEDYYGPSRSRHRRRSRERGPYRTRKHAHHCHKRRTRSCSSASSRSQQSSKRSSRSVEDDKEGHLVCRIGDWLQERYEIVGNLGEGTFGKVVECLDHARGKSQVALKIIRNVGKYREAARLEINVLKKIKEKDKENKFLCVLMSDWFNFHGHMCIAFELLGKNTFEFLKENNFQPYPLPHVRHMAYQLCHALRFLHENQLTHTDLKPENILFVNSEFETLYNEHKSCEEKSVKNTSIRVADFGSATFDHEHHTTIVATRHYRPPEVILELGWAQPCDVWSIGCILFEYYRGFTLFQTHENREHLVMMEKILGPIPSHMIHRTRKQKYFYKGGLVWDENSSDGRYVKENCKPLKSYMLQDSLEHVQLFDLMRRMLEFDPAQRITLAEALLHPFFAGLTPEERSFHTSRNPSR

CLK2 kinase = CLK2 kinase (Homo sapiens, UniProt P49760); assay: CLK2 kinase activity assay (Z-lyte FRET); format: biochemical; conditions: Z-lyte Ser/Thr 6 peptide, 60 μM ATP, 1 h at room temperature;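 further: FRET read-out as coumarin to fluorescein emission ratio, unphosphorylated peptide as 0% and phosphorylated peptide as 100% controls, duplicate reactions, non-linear regression fit of dose-response curves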
Sequence of CLK2 kinase (P49760 whole entry): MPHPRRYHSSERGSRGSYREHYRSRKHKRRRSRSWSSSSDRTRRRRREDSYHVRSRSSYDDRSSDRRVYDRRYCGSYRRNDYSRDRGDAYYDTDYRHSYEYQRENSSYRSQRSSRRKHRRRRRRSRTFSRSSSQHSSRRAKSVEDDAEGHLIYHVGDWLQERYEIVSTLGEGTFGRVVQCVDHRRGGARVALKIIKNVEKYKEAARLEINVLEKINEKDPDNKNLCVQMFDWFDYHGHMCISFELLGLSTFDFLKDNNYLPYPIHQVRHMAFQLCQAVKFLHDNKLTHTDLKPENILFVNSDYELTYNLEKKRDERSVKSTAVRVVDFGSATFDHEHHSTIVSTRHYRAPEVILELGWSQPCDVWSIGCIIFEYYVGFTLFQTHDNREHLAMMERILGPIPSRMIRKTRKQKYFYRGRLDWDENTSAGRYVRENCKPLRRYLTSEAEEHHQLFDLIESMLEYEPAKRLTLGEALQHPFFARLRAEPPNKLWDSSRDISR

[2] = system: primary human mesenchymal stem cells (hMSCs); assay: Chondrogenesis screening using primary human mesenchymal stem cells; format: cell-based; conditions: Homo sapiens, Mesenchymal stem cells, hMSC chondrogenesis; for Emax: maximum activity relative to TGF-β3 (10 ng/mL) positive control, read-out: Max. Activity as % TGF-β3 activity; for EC50: concentration required to induce 50% levels of chondrogenesis with TGF-β3 as positive control, read-out: Conc (nM) of 50% TGF-β3 activity
Outline: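 Derived values are EC50 for 50% chondrogenesis, maximal activity and the dose giving it. These come from nodule area in passage 3–6 primary hMSCs, expressed as fold change over the mean of 3 same-plate DMSO wells, 2–3 replicates per concentration. TGF-β3 served as positive control.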

| SMILES | pEC50 [1] | pEC50 (CLK3 kinase) | pEC50 (CLK2 kinase) | EC50 [2] [nM] | Emax [2] [%] |
| --- | --- | --- | --- | --- | --- |
| CN1CCN(c2ccnc3[nH]c(-c4n[nH]c5ccc(-c6cncc(NC(=O)CC(C)(C)C)c6)nc45)cc23)CC1 [compound 480] | 5.41 | 6.73 | 8.15 | – | 30.3 |
| CN1CCN(c2nccc3[nH]c(-c4n[nH]c5ncc(-c6cncc(NC(=O)C7CCCC7)c6)cc45)cc23)CC1 [compound 481] | < 5.00 | 6.13 | 8.05 | – | 30.3 |
| CN1CCN(c2nccc3[nH]c(-c4n[nH]c5ccc(-c6cncc(NC(=O)C7CCCCC7)c6)cc45)cc23)CC1 [compound 482] | 5.28 | 5.62 | 7.85 | – | 37.8 |
| CN1CCN(c2nccc3[nH]c(-c4n[nH]c5ccc(-c6cncc(NC(=O)CC7CCNCC7)c6)cc45)cc23)CC1 [compound 484] | < 5.00 | 6.37 | 8.22 | – | 42.8 |
| CN1CCN(c2cncc3[nH]c(-c4n[nH]c5ccc(-c6cncc(NC(=O)CC7CCNCC7)c6)cc45)cc23)CC1 [compound 485] | < 5.00 | 6.52 | 8.40 | – | 289 |
| CN1CCN(c2ccnc3[nH]c(-c4n[nH]c5ccc(-c6cncc(NC(=O)c7ccccc7)c6)nc45)cc23)CC1 [compound 488] | 5.22 | 5.60 | 8.52 | 10 | 61.8 |
| CN1CCN(c2ccnc3[nH]c(-c4n[nH]c5cnc(-c6cncc(CNCC7CCCC7)c6)cc45)cc23)CC1 [compound 489] | < 5.00 | 6.47 | 7.72 | 300 | 150 |
| CN(C)Cc1cncc(-c2cc3c(-c4cc5c(N6CCN(C)CC6)nccc5[nH]4)n[nH]c3cn2)c1 [compound 491] | 5.41 | 5.71 | 7.70 | – | 13.9 |
| CN1CCN(c2nccc3[nH]c(-c4n[nH]c5ccc(-c6cncc(CN7CCCC7)c6)cc45)cc23)CC1 [compound 492] | 5.03 | 6.05 | 7.92 | – | 31 |
| CN1CCN(c2cccc3[nH]c(-c4n[nH]c5ccc(-c6cncc(CN7CCCCC7)c6)cc45)cc23)CC1 [compound 493] | 5.30 | 6.04 | 8.22 | 100 | 198 |
| CN1CCN(c2nccc3[nH]c(-c4n[nH]c5ccc(-c6cncc(CN7CCCCC7)c6)nc45)cc23)CC1 [compound 496] | 5.38 | 6.28 | 8.22 | 10 | 70.8 |
| CN1CCN(c2ccnc3[nH]c(-c4n[nH]c5ncc(-c6cn[nH]c6)cc45)cc23)CC1 [compound 497] | < 5.00 | 6.17 | 8.30 | – | 20.1 |
| O=C(CC1CCNCC1)Nc1cncc(-c2ccc3[nH]nc(-c4cc5c(-c6ccoc6)ccnc5[nH]4)c3n2)c1 [compound 501] | < 5.00 | 6.38 | 7.96 | 10 | 102 |
| CCCC(=O)Nc1cncc(-c2cc3c(-c4cc5c(-c6cc(F)cc(NCCN(C)C)c6)ccnc5[nH]4)n[nH]c3cn2)c1 [compound 512] | < 5.00 | 7.03 | 7.85 | 10 | 162 |

The next molecules have a higher pEC50 [1] than those just listed; values first:

| pEC50 [1] | pEC50 (CLK3 kinase) | pEC50 (CLK2 kinase) | EC50 [2] [nM] | SMILES | Emax [2] [%] |
| --- | --- | --- | --- | --- | --- |
| 5.47 | 6.52 | 8.10 | 10 | CN1CCN(c2nccc3[nH]c(-c4n[nH]c5cnc(-c6cncc(NC(=O)C7CCCCC7)c6)cc45)cc23)CC1 [compound 483] | 60.8 |
| 5.67 | 6.54 | 8.22 | – | CN1CCN(c2nccc3[nH]c(-c4n[nH]c5ccc(-c6cncc(NC(=O)c7ccccc7)c6)cc45)cc23)CC1 [compound 486] | 34.6 |
| 5.55 | 6.52 | 8.30 | 10 | CN1CCN(c2nccc3[nH]c(-c4n[nH]c5cnc(-c6cncc(NC(=O)c7ccccc7)c6)cc45)cc23)CC1 [compound 487] | 67 |
| 6.04 | 7.38 | 8.52 | – | CCCCC(=O)Nc1cncc(-c2ccc3[nH]nc(-c4cc5c(-c6ccoc6)cncc5[nH]4)c3c2)c1 [compound 499] | 122 |
| 6.05 | 6.93 | 7.92 | – | CC(C)(C)CC(=O)Nc1cncc(-c2ccc3[nH]nc(-c4cc5c(-c6ccoc6)ccnc5[nH]4)c3c2)c1 [compound 500] | 21.2 |
| 5.44 | 6.47 | 7.85 | – | c1cc(-c2ccoc2)c2cc(-c3n[nH]c4ccc(-c5cncc(CNCC6CCCC6)c5)nc34)[nH]c2c1 [compound 502] | 25.3 |
| 6.00 | 6.98 | 8.00 | 30 | FC1(F)CCN(Cc2cncc(-c3cnc4[nH]nc(-c5cc6c(-c7ccoc7)cccc6[nH]5)c4c3)c2)C1 [compound 503] | 72.1 |
| 6.19 | 6.93 | 8.22 | – | COc1cncc(-c2ccc3[nH]nc(-c4cc5c(-c6ccoc6)nccc5[nH]4)c3c2)c1 [compound 504] | 35.5 |
| 5.72 | 6.66 | 8.40 | – | c1ncc(-c2ccc3[nH]nc(-c4cc5c(-c6ccoc6)nccc5[nH]4)c3c2)cn1 [compound 505] | 40.2 |
| 6.24 | 6.41 | 8.10 | 10 | CC(C)CC(=O)Nc1cncc(-c2cc3c(-c4cc5c(-c6cccs6)nccc5[nH]4)n[nH]c3cn2)c1 [compound 506] | 81.4 |
| 6.32 | 7.22 | 8.00 | 100 | O=C(Nc1cncc(-c2cnc3[nH]nc(-c4cc5c(-c6cccs6)nccc5[nH]4)c3c2)c1)C1CCC1 [compound 507] | 82.2 |
| 6.24 | 7.17 | 8.15 | – | c1ccc(CNCc2cncc(-c3ccc4[nH]nc(-c5cc6c(-c7cccs7)cncc6[nH]5)c4c3)c2)cc1 [compound 508] | 57.4 |
| 5.43 | 6.85 | 8.22 | 10 | c1csc(-c2nccc3[nH]c(-c4n[nH]c5cnc(-c6cncc(CN7CCCCC7)c6)cc45)cc23)c1 [compound 509] | 59 |
| 5.45 | 5.73 | 7.80 | 300 | c1csc(-c2ccnc3[nH]c(-c4n[nH]c5ccc(-c6cncc(OC7CCNCC7)c6)nc45)cc23)c1 [compound 510] | 51.4 |
| 6.39 | 7.30 | 8.22 | 100 | CN(C)CCNc1cc(F)cc(-c2cccc3[nH]c(-c4n[nH]c5cnc(-c6cncc(N)c6)cc45)cc23)c1 [compound 511] | 180 |
| 6.41 | 7.31 | 8.22 | 10 | CN(C)CCNc1cc(F)cc(-c2ccnc3[nH]c(-c4n[nH]c5cnc(-c6cncc(NC(=O)C(C)(C)C)c6)cc45)cc23)c1 [compound 513] | 87.3 |
| 5.90 | 7.31 | 8.40 | – | CN(C)CCNc1cc(F)cc(-c2ccnc3[nH]c(-c4n[nH]c5ccc(-c6cncc(CN7CCCCC7)c6)nc45)cc23)c1 [compound 514] | 48.5 |
